We go through two compounds from ChEMBL document CHEMBL2311345, “Facile synthesis and characterization of novel pyrazole-sulfonamides and their inhibition effects on human carbonic anhydrase isoenzymes” (Bioorg Med Chem, 2013).

The target of one assay is Carbonic anhydrase 2 (Homo sapiens, UniProt P00918). The experiment in a line: Un-competitive inhibition of human erythrocytes carbonic anhydrase 2 esterase activity by Lineweaver-Burk plot analysis.
The target of the next assay is Carbonic anhydrase 1 (Homo sapiens, UniProt P00915). As to the kind of experiment: Un-competitive inhibition of human erythrocytes carbonic anhydrase 1 esterase activity by Lineweaver-Burk plot analysis.
Chain of Carbonic anhydrase 1 (P00915 whole entry): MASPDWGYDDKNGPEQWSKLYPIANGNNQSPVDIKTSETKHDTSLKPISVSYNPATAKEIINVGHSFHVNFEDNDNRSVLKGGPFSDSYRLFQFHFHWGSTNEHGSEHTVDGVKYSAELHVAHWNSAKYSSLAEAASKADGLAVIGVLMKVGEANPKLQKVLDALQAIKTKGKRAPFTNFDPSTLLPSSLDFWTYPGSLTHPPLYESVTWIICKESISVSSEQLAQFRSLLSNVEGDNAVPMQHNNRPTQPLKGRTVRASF

As a reminder, the Ki is the equilibrium dissociation constant of an inhibitor or competing ligand from its target. High values mean a looser hold on the target, low ones a stronger hold on the target. At Carbonic anhydrase 2, `NS(=O)(=O)c1ccc(NC(=O)c2nn(-c3cccc(/N=N/c4c(O)ccc5ccccc45)c3)c(-c3ccccc3)c2C(=O)O)cc1` returned a Ki of 12.4 nM.
`CC(=O)/C(=N\Nc1cccc(-n2nc(C(=O)Nc3ccc(S(N)(=O)=O)cc3)c(C(=O)O)c2-c2ccccc2)c1)C(=O)c1ccccc1` showed a Ki on Carbonic anhydrase 1 of 62.3 nM.
